Measurements: patent US20160340633A1, “PLURIPOTENT STEM CELL EXPANSION AND PASSAGE USING A ROCKING PLATFORM BIOREACTOR” (General Electric Company, priority 2015, published 2016)

System: CT2 human embryonic stem cells
Experiment: Expansion of slicer-passaged pluripotent stem cell aggregates cultured with or without Y27632 ROCK inhibitor
Assay type: cell-based
Protocol: In one example, aggregate formation and cell expansion was measured after passage with Accutase™ or with the square grid or hexagon grid slicer. After passaging, CT2 human embryonic stem cells were seeded in 6 well plates in 2 ml mTeSR1 at either 4×10̂5 cells per mL or 1.5×10̂6 cells per mL, with or without 10 uM Y27632 ROCK inhibitor. The plates were maintained on a Boekel Scientific Rocker II 260350 rocker platform in a standard cell culture incubator at 37 degrees C., 5% CO2, with culture conditions of 20 rocks per minute at a 15 degree rock angle. Aggregates formed from the accutased cells after overnight culture. Each day, the spent mTeSR1 was completely removed and replaced with fresh mTeSR1 without Y27632 ROCK inhibitor. On day 4, the aggregates were recovered, dissociated with Accutase™ and enumerated using a Nucleocounter NC200. […]
Aggregates were passed across the slicer in a flow stream consisting of 100 mL to 1 L volumes. […] The cell aggregate concentration used to pass through the slicer was determined to influence the recovery of sliced cell aggregates at high viability. […] It was determined that slicing of cell aggregate concentrations below about 3×10̂6 cells per mL produced higher viability samples with higher recovery than cell concentrations greater than about 3×10̂6 cells per mL. […]

Compound: C[C@@H](N)[C@H]1CC[C@H](C(=O)Nc2ccncc2)CC1 [Y27632 ROCK inhibitor, Y-27632]
- expansion rates of slicer passaged aggregates cultured with or without Y27632 ROCK inhibitor (10 uM at seeding, 4×10^5 or 1.5×10^6 cells per mL, 6 well plates, rocking, counted day 4, square or hexagon grid slicer): similar
- requirement of Y27632 ROCK inhibitor for expansion of sliced pluripotent stem cell aggregates (sliced aggregates in mTeSR1, optionally 1 to 10 uM, unlike enzymatically passaged aggregates): not required
